In patent US20170050980A1, “OXADIAZINE COMPOUNDS AND METHODS OF USE THEREOF” (FORUM Pharmaceuticals Inc., priority 2015, published 2017):

Test system: Aβ42
Test: In vitro cell screening assay; quantification of Aβ (1-42) peptide by sandwich ELISA
Assay type: cell-based
Settings: Human neuroglioma H4 cells stably expressing human wild type APP751; compounds 0.003-10 μM, incubated overnight (16-18 h); Aβ42 in supernatant by sandwich ELISA; normalized to DMSO and DAPT; read-out: Aβ42 H4 Prot Fre IC50
Procedure, shortened: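 Stable H4 neuroglioma line expressing human wild-type APP751; compounds 0.003-10 μM (0.33% DMSO final) added in Pro293 medium 6 h after plating, incubated overnight (16-18 h) at 37 °C. Secreted Aβ42 measured in supernatant by C-terminal-capture sandwich ELISA with 4G8-HRP detection; IC50 by sigmoidal fit, normalized to DMSO and DAPT.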

| Compound | IC50 |
| --- | --- |
| COc1nc(C2=NOC(C)C(c3cn(C)c4cc(F)c(F)cc34)N2)ccc1-n1cnc(C)c1 (single isomer, unassigned; (-)) [Example 39B, (−)-5-(5,6-difluoro-1-methyl-1H-indol-3-yl)-3-(6-methoxy-5-(4-methyl-1H-imidazol-1-yl)pyridin-2-yl)-6-methyl-5,6-dihydro-4H-1,2,4-oxadiazine] | 0.0704 µM |
| COc1nc(C2=NOC(C)C(c3nn(C)c4ccc(Cl)cc34)N2)ccc1-n1cnc(C)c1 (stereo not drawn) [Example 69A, (+)-(cis)-5-(5-chloro-1-methyl-1H-indazol-3-yl)-3-(6-methoxy-5-(4-methyl-1H-imidazol-1-yl)pyridin-2-yl)-6-methyl-5,6-dihydro-4H-1,2,4-oxadiazine] | 0.0059 µM |
